Patent US7300503B2, “Dye mixture and ink containing the same, inkjet recording method and image forming method” (Fujifilm Corporation, priority 2004, dated 2007)

Experiment: Color toner: light fastness of image
Assay type: physicochemical
Conditions: xenon light 85,000 lx, 5 days, dye remaining ratio
Procedure: A mixture of 3 parts by weight of each of the phthalocyanine compounds (Compounds 101, 102, 103 and 107) according to the invention and 100 parts by weight of a resin for toner (styrene-acrylate copolymer, trade name: Hymer TB-1000F, produced by Sanyo Chemical Industries, Ltd.) was pulverized in a ball mill and melt-blended by heating at 150° C. After cooling, the resulting solid was coarsely pulverized by a hammer mill and then finely pulverized by an air jet-type pulverizer. The particles were classified to select those having a particle size of 1 to 20 micrometer to prepare a toner. To 10 parts by weight of the toner, 900 parts by weight of carrier iron powder (trade name: FEV250/400, produced by Powdertech Co., Ltd.) was uniformly blended to prepare a developer. Each developer was prepared in the same manner as above except for using 3 parts by weight of dye or 6 parts by weight of pigment as a comparative coloring agent as shown in Table 7 below. Using the developer, duplicate was conducted by a dry type plain paper electrophotographic copying machine (trade name: NP-5000 produced by Canon Inc.).
For the evaluation, by the developer using the color toner containing the compound according to the invention, a reflection image and a transmission image were prepared on paper and OHP sheet according to the above-described image forming method, respectively. The evaluation was conducted in the following manner. A toner adhesion amount was in a range of 0.7±0.05 mg/cm^2 for the evaluation.
With the image formed, color tone and light fastness were evaluated. Regarding the color tone, the evaluation was visually conducted by a three-stage rating of best, good and poor. In Table 7, symbols ∘, Δ and × mean best color tone, good color tone and poor color tone, respectively. The light fastness was evaluated by measuring image density (Ci) just after the recording, irradiating the image with xenon light (85,000 1×) using Weatherometer (Atlas C. 165) for 5 days and then measuring again image density (Cf), and calculated a dye remaining ratio ([…]). The image density was measured by a reflection densitometer (X-Rite 310TR). In Table 7, symbols ∘, Δ and × mean the dye remaining ratio of 90% or more, the dye remaining ratio of less than 90% to 80% and the dye remaining ratio of less than 80%, respectively.

Row | Molecule | Light Fastness
1 | CNc1ccc(O)c2c1C(=O)c1c(O)ccc(NC)c1C2=O [Comparative Dye 3] | Δ (the dye remaining ratio of less than 90% to 80%)
2 | C.I. Solvent Blue 70 | ∘ (the dye remaining ratio of 90% or more)
3 | C.I. Solvent Blue 38 | ∘ (the dye remaining ratio of 90% or more)
4 | Cc1ccc(Nc2ccc(Nc3ccc(C)cc3)c3c2C(=O)c2c(Nc4ccc(C)cc4)ccc(Nc4ccc(C)cc4)c2C3=O)cc1 [Comparative Dye 4] | Δ (the dye remaining ratio of less than 90% to 80%)
